Tests used:
Type in all cases: biochemical
factor IX = experiment: Selective decrease of coagulation activity at low temperature (Example 7); details: 0.2 mg DTT per ml plasma, 22° C.
Protocol: By addition of reducing agent, e.g. 0.2 mg DTT per ml plasma, at a low temperature, e.g. 22° C., it is possible to selectively influence the decrease of the coagulation activity in the different factors.

F VII = biological target: T1, F VII (Homo sapiens, UniProt P08709); experiment: Coagulation factor VII activity in plasma after reducing agent + iodoacetic acid; details: 5 min 37° C., then iodoacetic acid
T1 construct: from tissue; host or cells: human citrated blood plasma
T1 sequence (P08709 61-466): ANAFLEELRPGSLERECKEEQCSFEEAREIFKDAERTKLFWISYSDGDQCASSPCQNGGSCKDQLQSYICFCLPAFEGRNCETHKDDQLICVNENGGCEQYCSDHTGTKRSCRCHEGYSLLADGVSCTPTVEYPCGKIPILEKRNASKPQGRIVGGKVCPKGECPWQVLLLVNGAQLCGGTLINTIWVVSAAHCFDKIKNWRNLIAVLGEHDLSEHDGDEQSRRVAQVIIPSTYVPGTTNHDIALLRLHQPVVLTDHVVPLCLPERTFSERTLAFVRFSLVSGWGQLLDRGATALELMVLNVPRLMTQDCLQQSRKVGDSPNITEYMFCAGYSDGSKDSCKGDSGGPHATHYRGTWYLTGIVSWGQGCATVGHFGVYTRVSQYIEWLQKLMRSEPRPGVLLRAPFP
Protocol: (§1) Human blood with anti-coagulating agent (9 parts blood+1 part 3.8% trisodium citrate) is centrifuged and the following tests with plasma were carried out:
(§2) The plasma is divided into 8 ml portions, which are preheated at 37° C. for 5 min. DTT is added in different concentrations, see table 1 below, and is incubated for 5 min. at 37° C. Then iodoacetic acid, 3 mol per mol DTT, is added, and incubation takes place for 15 min. at 37° C. The plasma samples are distributed in portions of about 0.2 ml and are immediately frozen at -70° C. Testing of different coagulation factors is made in known manner.
(§3) The plasma is divided into 8 ml portions, which are preheated at 37° C. for 5 min. DTE is added in different concentrations (see table 2), and is incubated for 5 minutes at 37° C. Then, iodoacetic acid (3 mol per mol DTE) is added and incubation is carried out for 15 minutes at 37° C. The plasma samples are distributed in portions of about 0.2 ml and are immediately frozen at -70° C. Testing of different coagulation factors is made in a manner known per se.
(§4) The plasma is divided into 8 ml portions, which are preheated at 37° C. for 5 minutes. Lipoic acid is added in different concentrations (see table 3), and is incubated for 5 minutes at 37° C. Then, iodoacetic acid (3 mol per mol lipoic acid) is added and incubation is carried out for 15 minutes at 37° C. The plasma samples are distributed in portions of about 0.2 ml and are immediately frozen at -70° C. Testing of different coagulation factors is made in a manner known per se.
(§5) The plasma is divided into 8 ml portions, which are preheated at 37° C. for 5 minutes. Mercaptoethanol is added in different concentrations (see table 4), and is incubated for 5 minutes at 37° C. Then, iodoacetic acid (3 mol per mol mercaptoethanol) is added and incubation is carried out for 15 minutes at 37° C. The plasma samples are distributed in portions of about 0.2 ml and are immediately frozen at -70° C. Testing of different coagulation factors is made in a manner known per se.
(§6) The plasma is divided into 8 ml portions, which are preheated at 37° C. for 5 minutes. Potassium borohydride is added in different concentrations (see table 5, and is incubated for 5 minutes at 37° C. Then, iodoacetic acid (3 mol per mol potassium borohydride) is added and incubation is carried out for 15 minutes at 37° C. The plasma samples are distributed in portions of about 0.2 ml and are immediately frozen at -70° C. Testing of different coagulation factors is made in a manner known per se.

F XI = biological target: T2, F XI (Homo sapiens, UniProt P03951); experiment: Coagulation factor XI activity in plasma after reducing agent + iodoacetic acid; details: 5 min 37° C., then iodoacetic acid
T2 construct: from tissue; host or cells: human citrated blood plasma
Protocol: as §1, §2, §3, §4, §5, §6

F XII = biological target: T3, F XII (Homo sapiens, UniProt P00748); experiment: Coagulation factor XII activity in plasma after reducing agent + iodoacetic acid; details: 5 min 37° C., then iodoacetic acid
T3 construct: from tissue; host or cells: human citrated blood plasma
T3 sequence (P00748 20-615): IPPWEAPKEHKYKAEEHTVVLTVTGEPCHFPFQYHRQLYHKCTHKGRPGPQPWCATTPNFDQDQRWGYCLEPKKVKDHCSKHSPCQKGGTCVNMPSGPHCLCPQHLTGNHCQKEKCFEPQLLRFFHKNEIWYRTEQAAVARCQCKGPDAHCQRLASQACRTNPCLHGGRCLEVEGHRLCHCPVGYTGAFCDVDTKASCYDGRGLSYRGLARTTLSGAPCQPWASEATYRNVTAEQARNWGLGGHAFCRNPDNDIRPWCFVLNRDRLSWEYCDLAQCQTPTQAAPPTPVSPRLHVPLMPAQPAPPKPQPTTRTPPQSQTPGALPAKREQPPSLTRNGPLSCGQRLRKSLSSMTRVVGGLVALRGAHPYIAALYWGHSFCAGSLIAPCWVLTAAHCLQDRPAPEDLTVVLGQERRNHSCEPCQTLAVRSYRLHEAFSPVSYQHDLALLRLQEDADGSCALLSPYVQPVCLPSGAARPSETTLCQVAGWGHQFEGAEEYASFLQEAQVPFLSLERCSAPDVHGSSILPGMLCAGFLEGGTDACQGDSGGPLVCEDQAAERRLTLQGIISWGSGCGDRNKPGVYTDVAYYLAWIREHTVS
Protocol: as §1, §2, §3, §4, §5, §6

[1] = test system: coagulation factors VII, IX, X, XI and XII; experiment: Effect of reducing substance added to blood or plasma on coagulation factors; details: addition to blood
[2] = human, 0.1 mg reducing agent/ml plasma (sample C)
[3] = human, 0.6 mg reducing agent/ml plasma
[4] = human, Table 1 sample D, 0.1 mg DTT/ml plasma
[5] = plasma + 0.14 mg reducing agent
[6] = plasma + 0.28 mg reducing agent

T2 sequence (P03951 19-625): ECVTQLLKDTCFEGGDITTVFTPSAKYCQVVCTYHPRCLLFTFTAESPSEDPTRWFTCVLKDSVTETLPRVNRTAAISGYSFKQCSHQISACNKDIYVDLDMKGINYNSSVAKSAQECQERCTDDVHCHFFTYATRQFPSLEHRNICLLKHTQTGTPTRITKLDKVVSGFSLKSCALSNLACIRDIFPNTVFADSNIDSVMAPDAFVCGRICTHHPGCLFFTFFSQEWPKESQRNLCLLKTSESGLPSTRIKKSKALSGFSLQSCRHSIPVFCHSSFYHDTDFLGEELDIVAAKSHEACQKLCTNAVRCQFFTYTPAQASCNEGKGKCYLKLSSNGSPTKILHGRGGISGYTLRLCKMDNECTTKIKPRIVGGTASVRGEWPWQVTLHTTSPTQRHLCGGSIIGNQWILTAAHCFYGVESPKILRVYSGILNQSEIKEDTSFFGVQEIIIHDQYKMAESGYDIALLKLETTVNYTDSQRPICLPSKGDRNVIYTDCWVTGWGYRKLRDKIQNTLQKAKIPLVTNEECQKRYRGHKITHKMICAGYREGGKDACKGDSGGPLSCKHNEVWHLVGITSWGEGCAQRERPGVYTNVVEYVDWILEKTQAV

SMILES | activity at 100 µg/mL (F VII; [2]) | Coagulation factor F VII (F VII; plasma + 0.4 mg reducing agent) | activity at 100 µg/mL (F XI; [2]) | Coagulation factor F XI (F XI; plasma + 0.4 mg reducing agent) | activity at 100 µg/mL (F XII; [2]) | Coagulation factor F XII (F XII; plasma + 0.4 mg reducing agent) | Coagulation factor F VII (F VII; plasma + 0.2 mg reducing agent) | Coagulation factor F XI (F XI; plasma + 0.2 mg reducing agent) | Coagulation factor F XII (F XII; plasma + 0.2 mg reducing agent) | other results
OCCS [mercaptoethanol] |  | 29 % of control |  | 62 % of control |  | 121 % of control | 69 % of control | 74 % of control | 102 % of control | 
[BH4-].[K+] [KBH4, potassium borohydride] |  |  |  |  |  |  |  |  |  | Coagulation factor F VII (F VII; [5]): 131 % of control; Coagulation factor F VII (F VII; [6]): 127 % of control; Coagulation factor F XI (F XI; [5]): 94 % of control; Coagulation factor F XI (F XI; [6]): 107 % of control; Coagulation factor F XII (F XII; [5]): 86 % of control; Coagulation factor F XII (F XII; [6]): 83 % of control

The next lines start with results.

activity at 100 µg/mL (F VII; [2]) | Coagulation factor F VII (F VII; plasma + 0.4 mg reducing agent) | activity at 100 µg/mL (F XI; [2]) | Coagulation factor F XI (F XI; plasma + 0.4 mg reducing agent) | activity at 100 µg/mL (F XII; [2]) | Coagulation factor F XII (F XII; plasma + 0.4 mg reducing agent) | Coagulation factor F VII (F VII; plasma + 0.2 mg reducing agent) | Coagulation factor F XI (F XI; plasma + 0.2 mg reducing agent) | Coagulation factor F XII (F XII; plasma + 0.2 mg reducing agent) | SMILES | other results
87% | 6 % of control | 47% | 0 % of control | 78% | 0 % of control |  |  |  | O[C@H](CS)[C@H](O)CS [DTT, dithiothreitol] | activity of factor IX compared with factor X (factor IX): the activity of factor IX is not influenced in as high a degree as the activity of factor X; activity at 600 µg/mL (F VII; [3]): 0%; activity at 100 µg/mL (F VII; [4]): 21%; activity at 600 µg/mL (F XI; [3]): 0%; activity at 100 µg/mL (F XI; [4]): 9%; activity at 600 µg/mL (F XII; [3]): 0%; activity at 100 µg/mL (F XII; [4]): 18%; content of coagulation factors VII, IX, X, XI and XII in the resulting plasma [1]: reduces the content of the coagulation factors VII, IX, X, XI and XII to a large extent
252% | 285 % of control | 67% | 39 % of control | 74% | 98 % of control | 203 % of control | 32 % of control | 78 % of control | O=C(O)CCCCC1CCSS1 (centres unmarked) [lipoic acid] | 
61% | 48 % of control | 66% | 0 % of control | 78% | 0 % of control | 30 % of control | 3 % of control | 1 % of control | O[C@H](CS)[C@@H](O)CS [DTE, dithioerythritol] | 

— patent US4229435A, “Preparation of blood fraction” (priority 1978, dated 1980)
